Drawing on ChEMBL document CHEMBL1128213, “1-Phenyl-3-(aminomethyl)pyrroles as potential antipsychotic agents. Synthesis and dopamine receptor binding” (J Med Chem, 1995), this text covers Ki for eleven compounds.

In general, pKi refers to the negative decadic logarithm of the Ki, by convention in mol/L.

In experiment [1] the target is D(3) dopamine receptor (Chlorocebus aethiops, UniProt P52703).
Description: Displacement of [3H]-YM 09151 from african monkey Dopamine receptor D3
The target in experiment [2] is T1, D(4) dopamine receptor (Homo sapiens, UniProt P21917).
T1 sequence (P21917 whole entry): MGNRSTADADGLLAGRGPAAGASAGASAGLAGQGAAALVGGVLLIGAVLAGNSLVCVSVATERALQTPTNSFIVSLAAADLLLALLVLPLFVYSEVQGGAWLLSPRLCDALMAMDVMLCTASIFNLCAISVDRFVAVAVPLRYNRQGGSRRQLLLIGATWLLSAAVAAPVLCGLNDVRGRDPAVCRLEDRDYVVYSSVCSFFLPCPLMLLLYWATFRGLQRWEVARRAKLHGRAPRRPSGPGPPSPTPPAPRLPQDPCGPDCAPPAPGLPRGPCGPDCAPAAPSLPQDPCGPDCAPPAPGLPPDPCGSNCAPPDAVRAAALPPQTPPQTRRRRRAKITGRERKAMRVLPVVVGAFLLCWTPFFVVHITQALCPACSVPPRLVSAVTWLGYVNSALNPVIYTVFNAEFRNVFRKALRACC
Description: Displacement of [3H]-YM 09151 from human Dopamine receptor D4

Experiment [3] concerns the target D(2) dopamine receptor (Rattus norvegicus, UniProt P61169). The experiment is described as follows: Binding affinity towards Dopamine receptor D2 of rat using [3H]spiperone.

pKi: −log10 of the molar value.

Sequence of D(3) dopamine receptor (P52703 whole entry): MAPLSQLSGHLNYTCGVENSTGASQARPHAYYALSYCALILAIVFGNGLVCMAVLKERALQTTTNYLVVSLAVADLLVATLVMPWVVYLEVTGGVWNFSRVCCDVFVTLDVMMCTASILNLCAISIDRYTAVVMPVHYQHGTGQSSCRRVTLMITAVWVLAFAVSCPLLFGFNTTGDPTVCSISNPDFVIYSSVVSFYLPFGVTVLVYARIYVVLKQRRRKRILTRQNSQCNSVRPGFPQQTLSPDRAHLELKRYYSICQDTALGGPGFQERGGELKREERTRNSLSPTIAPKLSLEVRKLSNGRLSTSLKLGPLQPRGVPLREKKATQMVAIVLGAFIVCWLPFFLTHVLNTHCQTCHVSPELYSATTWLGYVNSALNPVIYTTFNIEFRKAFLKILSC
Sequence of D(2) dopamine receptor (P61169 whole entry): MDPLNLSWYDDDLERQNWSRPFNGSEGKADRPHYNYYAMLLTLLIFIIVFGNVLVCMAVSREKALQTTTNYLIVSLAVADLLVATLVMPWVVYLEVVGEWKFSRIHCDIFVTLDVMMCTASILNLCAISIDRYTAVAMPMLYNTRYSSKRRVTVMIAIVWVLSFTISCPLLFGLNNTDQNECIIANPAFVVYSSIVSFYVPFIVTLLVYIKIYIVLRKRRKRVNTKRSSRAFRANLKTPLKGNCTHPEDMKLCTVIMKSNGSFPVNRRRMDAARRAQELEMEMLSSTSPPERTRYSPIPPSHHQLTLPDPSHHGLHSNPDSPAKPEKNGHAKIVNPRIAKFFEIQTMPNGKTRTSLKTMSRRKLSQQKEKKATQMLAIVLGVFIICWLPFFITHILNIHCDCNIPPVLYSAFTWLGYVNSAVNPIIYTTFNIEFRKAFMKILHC

Consider `c1ccc(C2CCN(Cc3ccn(-c4ccccc4)c3)CC2)cc1`, for which the pKi in experiment [1] was 7.21; in experiment [2], 8.05. Turning to `COc1ccccc1N1CCN(Cc2ccc(-c3ccccc3)n2C)CC1`, the pKi in experiment [3] is 9.10. Consider `O=c1[nH]c2ccccc2n1C1CCN(Cc2ccn(-c3ccccc3)c2)CC1`, for which the pKi in experiment [1] was 6.40; in experiment [2] it was 6.19.

`OC1(c2ccc(Cl)cc2)CCN(Cc2ccn(-c3ccccc3)c2)CC1`: the pKi in experiment [1] is 6.32; in experiment [2], 6.49. In experiment [2], `C1=C(c2ccccc2)CCN(Cc2ccn(-c3ccccc3)c2)C1` had a pKi of 8.40.

Compound `COc1ccccc1N1CCN(Cc2ccn(-c3ccccc3)c2)CC1` had a pKi in experiment [2] of 8.89. `c1ccc(-n2ccc(CN3CCN(c4ccccn4)CC3)c2)cc1`: the pKi is 6.82 in experiment [1] and 8.80 in experiment [2]. The like results for `c1ccc(N2CCN(Cc3ccn(-c4ccccc4)c3)CC2)cc1` were, in that order, 7.31 and 8.40. The like results for `O=C1NCN(c2ccccc2)C12CCN(Cc1ccn(-c3ccccc3)c1)CC2` were, in that order, 7.05 and 6.70. The corresponding values for `OC1(c2cccc(C(F)(F)F)c2)CCN(Cc2ccn(-c3ccccc3)c2)CC1` are 6.38 and 6.31. On to `CN1CCN(C2=Nc3cc(Cl)ccc3Nc3ccccc32)CC1` [CLOZAPINE], for which the negative logarithm of the Ki (pKi) in experiment [1] was 6.33.
